Experimental findings from ChEMBL document CHEMBL3044580, “Insecticide selectivity and behavioral response of the earwig Doru luteipes” (2011) are described below.

As usually defined, the LC50 is the concentration lethal to half of the exposed cells or organisms.

≈ marks a conversion by molar mass, not a printed value. Calls of active or inactive are those of the source. The calls are words filed in the database; no cut-off is given here.

The test system of assay [1] is Doru. The assay can be described thus: Relative toxicity in adult Doru luteipes (earwigs) in compound treated maize leaf assessed as mortality measured by time-mortality bioassay. The class given is functional.
For assay [2], the system named is Doru. As to the kind of experiment: Insecticidal activity against adult Doru luteipes (earwigs) in compound treated maize leaf assessed as mortality measured by time-mortality bioassay. Format: functional.
Assay [3] concerns Spodoptera frugiperda. The assay can be described thus: Relative toxicity in second instar Spodoptera frugiperda (fall armyworm) in compound treated maize leaf assessed as mortality measured by Time-mortality bioassay. The class given is functional.
In assay [4] the test system is Spodoptera frugiperda. As to the kind of experiment: Insecticidal activity in second instar Spodoptera frugiperda (fall armyworm) in compound treated maize leaf assessed as mortality measured by Time-mortality bioassay. The class given is functional.
A short description of assay [5]: Selectivity ratio of LC50 for adult earwig species Doru luteipes to LC50 for second instar fall armyworm Spodoptera frugiperda by concentration-mortality bioassay. The class given is functional.
The test system of assay [6] is Doru. As to the kind of experiment: Relative toxicity in adult Doru luteipes (earwigs) in compound treated maize leaf assessed as mortality measured after 48 hr by concentration-mortality bioassay. The class given is functional.
The test system of assay [7] is Doru. The assay can be described thus: Insecticidal activity against adult Doru luteipes (earwigs) in compound treated maize leaf assessed as mortality measured after 48 hr by concentration-mortality bioassay. Format: functional.
Assay [8] concerns Spodoptera frugiperda. As to the kind of experiment: Relative toxicity in second instar Spodoptera frugiperda (fall armyworm) in compound treated maize leaf assessed as mortality measured after 48 hr by concentration-mortality bioassay. Format: functional.
For assay [9], the system named is Spodoptera frugiperda. The assay can be described thus: Insecticidal activity in second instar Spodoptera frugiperda (fall armyworm) in compound treated maize leaf assessed as mortality measured after 48 hr by concentration-mortality bioassay. Format: functional.
Assay [10] deals with Doru. The assay can be described thus: Insecticidal activity against adult Doru luteipes earwigs) in compound treated maize leaf assessed as higher in number of stops in half-treated arenas measured during 10 min compound exposure by behavioral locomotory bioassay. Format: functional, organism-based.
For assay [11], the system named is Doru. As to the kind of experiment: Insecticidal activity against adult Doru luteipes earwig ) in compound treated maize leaf assessed as higher resting time in half-treated arenas measured during 10 min compound exposure by behavioral locomotory bioassay. Format: functional, organism-based.
Assay [12] concerns Doru. The assay can be described thus: Insecticidal activity against adult Doru luteipes (earwigs) in compound treated maize leaf assessed as reduction in walking velocity in fully-treated arenas measured during 10 min compound exposure by behavioral locomotory bioassay. Format: functional, organism-based.
For assay [13], the system named is Doru. As to the kind of experiment: Insecticidal activity against adult Doru luteipes (earwigs) in compound treated maize leaf assessed as reduction in distance walked in fully-treated arenas measured during 10 min compound exposure by behavioral locomotory bioassay. Format: functional, organism-based.
Assay [14] relates to Doru. The assay can be described thus: Insecticidal activity against adult Doru luteipes (earwigs) in compound treated maize leaf assessed as insect avoidance by behavioral bioassay. Format: functional, organism-based.

With `CC1(C)[C@H](/C=C(\Cl)C(F)(F)F)[C@@H]1C(=O)O[C@@H](C#N)c1cccc(Oc2ccccc2)c1` (relative stereo) [REL-LAMBDA CYHALOTHRIN], the Ratio in the assay on Doru [1] stood at 1.23; in the assay on Spodoptera frugiperda [3], 1.47; in the assay with Doru [6], 45000; with Spodoptera frugiperda [8], 6. In addition, the LT50 in the assay on Doru [2] was determined as 2.12 h; with Spodoptera frugiperda [4], 25.03 min. For the same compound, the RatioLC50 in assay [5] was 23.7. In addition, the LC50 in the assay on Doru [7] came to 16.6 µg/mL (≈ 36.9 µM); with Spodoptera frugiperda [9], 0.7 µg/mL (≈ 1.56 µM).

As to `CNC(=O)c1cc(Cl)cc(C)c1NC(=O)c1cc(Br)nn1-c1ncccc1Cl` [CHLORANTRANILIPROLE], the values for the Ratio with Spodoptera frugiperda [3], in the assay on Doru [6] and in the assay with Spodoptera frugiperda [8] were 4.97, 1 and 5.46, respectively. The LT50 in the assay on Spodoptera frugiperda [4] is 84.61 min. The RatioLC50 in assay [5] turned out to be 980000. The LC50 in the assay with Spodoptera frugiperda [9] was determined as 0.77 µg/mL (≈ 1.59 µM).

Turning to `CC1(C)[C@H](C(=O)O[C@H](C#N)c2cccc(Oc3ccccc3)c2)[C@@H]1C=C(Br)Br` [DELTAMETHRIN], the Ratio amounted to 2.63 with Spodoptera frugiperda [3], 33000 in the assay on Doru [6] and 23.2 in the assay with Spodoptera frugiperda [8]. Also, in the assay on Spodoptera frugiperda [4], the LT50 was 44.84 min. In assay [5], the RatioLC50 came to 152. In addition, the LC50 is 22.6 µg/mL (≈ 44.7 µM) in the assay with Doru [7] and 0.18 µg/mL (≈ 0.356 µM) in the assay with Spodoptera frugiperda [9].

Take `CC[C@H]1CCC[C@H](O[C@H]2CC[C@H](N(C)C)[C@@H](C)O2)[C@@H](C)C(=O)C2=C[C@@H]3[C@@H](C=C(C)[C@@H]4C[C@@H](O[C@@H]5O[C@@H](C)[C@H](OC)[C@@H](OC)[C@H]5OC)C[C@@H]34)[C@@H]2CC(=O)O1.CC[C@H]1CCC[C@H](O[C@H]2CC[C@H](N(C)C)[C@@H](C)O2)[C@@H](C)C(=O)C2=C[C@@H]3[C@@H](C=C[C@@H]4C[C@@H](O[C@@H]5O[C@@H](C)[C@H](OC)[C@@H](OC)[C@H]5OC)C[C@@H]34)[C@@H]2CC(=O)O1`: the inhibition entry in the assay on Doru [10], in the assay with Doru [11], with Doru [12] and in the assay with Doru [13] was “Active” throughout. The Ratio was determined as 6.61 with Doru [1], 2.77 with Spodoptera frugiperda [3], 3528 with Doru [6] and 99.47 in the assay on Spodoptera frugiperda [8]. Besides, the LT50 in the assay on Doru [2] amounted to 11.43 h; in the assay with Spodoptera frugiperda [4], 47.17 min. For the same compound, the RatioLC50 in assay [5] was 3530. Moreover, the LC50 with Doru [7] turned out to be 215 µg/mL; in the assay on Spodoptera frugiperda [9], 0.04 µg/mL.

Consider `CCOP(=S)(OCC)Oc1nc(Cl)c(Cl)cc1Cl` [CHLORPYRIFOS], for which, in the assay on Doru [14], the inhibition result is “Active”. In addition, the Ratio in the assay on Doru [1] is reported as 1; with Spodoptera frugiperda [3] it was 1.26; in the assay on Doru [6], 550000; in the assay with Spodoptera frugiperda [8], 3.57. In addition, the LT50 in the assay on Doru [2] turned out to be 1.73 h; with Spodoptera frugiperda [4], 21.52 min. In addition, in [5], the RatioLC50 is 1.2. In addition, the median lethal concentration (LC50) in the assay with Doru [7] turned out to be 1.4 µg/mL (≈ 3.99 µM); in the assay on Spodoptera frugiperda [9] it was 1.18 µg/mL (≈ 3.37 µM).

As for `CCOc1ccc(C(C)(C)COCc2cccc(Oc3ccccc3)c2)cc1` [ETOFENPROX], in the assay on Doru [14], the inhibition result is “Active”. Besides, the Ratio in the assay with Spodoptera frugiperda [3] came out at 1; with Doru [6], 1133.5; in the assay with Spodoptera frugiperda [8] it was 1.25. The LT50 in the assay with Spodoptera frugiperda [4] was 17.03 min. Moreover, the RatioLC50 in assay [5] was 198. For the same compound, the LC50 in the assay on Doru [7] stood at 668 µg/mL (≈ 1770 µM); with Spodoptera frugiperda [9], 3.37 µg/mL (≈ 8.95 µM).

With `CCOCn1c(-c2ccc(Cl)cc2)c(C#N)c(Br)c1C(F)(F)F` [CHLORFENAPYR], in the assay with Doru [14], the inhibition result is “Active”. Besides, the Ratio with Doru [1] is reported as 12.48; with Spodoptera frugiperda [3], 6.83; in the assay with Doru [6] it was 14000; with Spodoptera frugiperda [8], 1.78. The figures for the LT50 with Doru [2] and in the assay with Spodoptera frugiperda [4] were 21.58 h and 116.34 min, respectively. In addition, in assay [5], the RatioLC50 was determined as 22.5. Moreover, the 50% lethal concentration (LC50) with Doru [7] is 53.3 µg/mL (≈ 131 µM); in the assay on Spodoptera frugiperda [9] it was 2.37 µg/mL (≈ 5.81 µM).

Consider `CNC(=O)ON=C(C)SC` [METHOMYL], for which the Ratio in the assay with Spodoptera frugiperda [3] was found to be 1.71; in the assay on Doru [6], 348; in the assay on Spodoptera frugiperda [8], 1. Besides, in the assay on Spodoptera frugiperda [4], the LT50 was 29.18 min. Besides, the RatioLC50 in assay [5] is 517. Besides, the LC50 was determined as 2180 µg/mL (≈ 13400 µM) in the assay on Doru [7] and 4.21 µg/mL (≈ 26 µM) in the assay with Spodoptera frugiperda [9].
